Experimental findings from article PMC7529893, “Structural basis for substrate recognition and chemical inhibition of oncogenic MAGE ubiquitin ligases” (Nature Communications, 2020) are described below.

The experiment concerns the target T1, MAGE-A11:PCF11 interaction (GST-MAGE-A11 and FAM-PCF11_4) (Homo sapiens, UniProt P43364).
T1 construct: GST-MAGE-A11 MHD (human MAGE-A11 MHD amino acid 218-429); made in house; host or cells: E. coli BL21(DE3)
T1 sequence (P43364 218-429): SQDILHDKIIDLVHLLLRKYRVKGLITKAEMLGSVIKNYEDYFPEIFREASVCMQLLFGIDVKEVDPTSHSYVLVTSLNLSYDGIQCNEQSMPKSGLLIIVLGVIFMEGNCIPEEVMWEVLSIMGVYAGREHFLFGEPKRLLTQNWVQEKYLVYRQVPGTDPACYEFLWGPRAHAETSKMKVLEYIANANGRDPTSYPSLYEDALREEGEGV
Briefly: TR-FRET primary / single point screen at 15 µM. The format is binding. The gist of the method:
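TR-FRET 520/490 nm emission ratio was read after 90 min at room temperature. Wells held 5 nM GST-MAGE-A11, 5 nM Tb-anti-GST, 200 nM FAM-PCF11_4 and 15 µM compound in Tris pH 7.5 buffer with MgCl2, BSA and DTT. %Inhibition was scaled to DMSO and minus-MAGE-A11 controls.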

[1] abbreviates: single point TR-FRET screening of 797 quinoline compounds against MAGE-A11:PCF11.
[2] abbreviates: single point TR-FRET screening of quinoline compounds against MAGE-A11:PCF11, 15 µM.

For `COc1cccc(F)c1CN(CCCCNc1ccnc2cc(Cl)ccc12)Cc1ccccc1` [SJ000357501], the “percent inhibition (TR-FRET)” value under setting [1] worked out at 5.094.

Turning to `CCCN(CCCNc1c2ccc(Cl)cc2nc2ccc(OC)cc12)Cc1cccn1C` [SJ000522987], under setting [1], the “percent inhibition (TR-FRET)” value is reported as -302.626. The same measure, in the same setting: in the case of `CCOC(=O)c1cnc2c(Cl)cccc2c1NCCN1CCOCC1` [SJ000163436] it was -6.529. Regarding `Fc1ccc(CN(CCCNc2ccnc3cc(Cl)ccc23)Cc2ccccc2)cc1F` [SJ000361174], under setting [2], the “percent inhibition (TR-FRET)” value was found to be 27.5505. For the compound `O=[N+]([O-])c1ccccc1CN(CCCCNc1ccnc2cc(Cl)ccc12)Cc1ccccc1` [SJ000361200], the “percent inhibition (TR-FRET)” value under setting [1] is 17.2064. For the compound `CCCCN(CCCCNc1ccnc2cc(Cl)ccc12)Cc1ccccc1` [SJ000357538], the “percent inhibition (TR-FRET)” value under setting [1] stood at 27.6387. Same read-out and setting: in the case of `CCCN(CCCNc1c2ccc(Cl)cc2nc2ccc(OC)cc12)Cc1ccccc1[N+](=O)[O-]` [SJ000520947] it was -228.339. In the case of `CCC(CC)CNCCCNc1c2ccc(Cl)cc2nc2ccc(OC)cc12` [SJ000361092], the “percent inhibition (TR-FRET)” value under setting [1] is on record as -427.368. Still for that read-out and setting: under `CCOc1ccc2ncc(S(=O)(=O)c3ccc(C)c(C)c3)c(N3CCN(C)CC3)c2c1` [SJ000247354] stands -14.0527.

As to `Cc1ccsc1CN(CCCNc1ccnc2cc(Cl)ccc12)Cc1ccccc1` [SJ000357440], under setting [2], the “percent inhibition (TR-FRET)” value is 10.905. Still for that read-out and setting: under `Clc1ccc2c(NCCCN(Cc3ccccc3)Cc3ccsc3)ccnc2c1` [SJ000312675] stands 9.598; under `FC(F)(F)c1ccc2c(NCCCNCc3cc4ccccc4o3)ccnc2c1` [SJ000521057], 27.4843.

In the case of `CCCN(CCCNc1c2ccc(Cl)cc2nc2ccc(OC)cc12)Cc1ccc(-c2cccc(Cl)c2)o1` [SJ000523020], under setting [1], the “percent inhibition (TR-FRET)” value was -169.736. Same read-out and setting: under `Clc1ccc2c(NC3CCN(CC4CCCCC4)CC3)ccnc2c1` [SJ000523085] stands 15.4273. Turning to `FC(F)(F)c1ccc2c(NCCCNCC3CC3)ccnc2c1` [SJ000361108], under setting [2], the “percent inhibition (TR-FRET)” value came out at 22.8076. On the same count and under the same terms, under `Cc1cc(C)cc(Cc2ccc3c(NCCCNCc4ccco4)ccnc3c2)c1` [SJ000311318] stands 39.3055; under `CCCN(CCCNc1ccnc2cc(Cl)ccc12)Cc1ccccc1OC(F)(F)F` [SJ000357595], -21.8698.

Regarding `CCOc1ccc2ncc(S(=O)(=O)c3ccccc3)c(N3CCN(c4ccc(F)cc4)CC3)c2c1` [SJ000083979], the “percent inhibition (TR-FRET)” value under setting [1] is listed as -181.288. `CCOC(=O)c1ccc2ncc(C(=O)OCC)c(NCCN3CCOCC3)c2c1` [SJ000031347]: the “percent inhibition (TR-FRET)” value under setting [1] is reported as 0.6542. As for `Oc1ccccc1CN1CCC(Nc2ccnc3cc(Cl)ccc23)CC1` [SJ000357529], the “percent inhibition (TR-FRET)” value under setting [1] was 22.1466.

Take `Cc1cc(C)c(CN(CCCCNc2ccnc3cc(Cl)ccc23)Cc2ccccc2)c(C)c1` [SJ000361193]: the “percent inhibition (TR-FRET)” value under setting [1] is reported as 26.0268. The same measure, in the same setting: in the case of `CCOc1ccc2ncc(C(=O)c3ccccc3)c(N3CCN(CC)CC3)c2c1` [SJ000247283] it was -0.2733. As to `CCCCCCNCCCNc1ccnc2cc(Cl)ccc12` [SJ000361120], under setting [2], the “percent inhibition (TR-FRET)” value amounted to 22.2507. On the same count and under the same terms, in the case of `CCCN(CCCNc1ccnc2cc(Cl)ccc12)Cc1cn(C)c2ccccc12` [SJ000522995] it was -1.532. Turning to `CCCN(CCCCNc1ccnc2cc(Cl)ccc12)Cc1ccccc1` [SJ000311205], the “percent inhibition (TR-FRET)” value under setting [1] was found to be 7.684.

Take `O=S(=O)(c1ccccc1)c1cnc2ccc(Cl)cc2c1N1CCN(c2ccccc2)CC1` [SJ000083977]: under setting [1], the “percent inhibition (TR-FRET)” value is recorded as -15.701.

On to `CCOC(=O)c1cnc2c(C)cc(Cl)cc2c1NCCN(C)C` [SJ000027210], for which, under setting [1], the “percent inhibition (TR-FRET)” value worked out at 3.834. The same measure, in the same setting: under `CCc1ccc2ncc(S(=O)(=O)c3ccc(OC)cc3)c(N3CCN(c4ccc(F)cc4)CC3)c2c1` [SJ000117064] stands -9.084; under `O=C(O)c1ccccc1CN(CCCCNc1ccnc2cc(Cl)ccc12)Cc1ccccc1` [SJ000361203], 4.099.

Consider `CCCN(CCCNc1ccnc2cc(Cl)ccc12)Cc1ccc(Cl)c([N+](=O)[O-])c1` [SJ000522761], for which the “percent inhibition (TR-FRET)” value under setting [2] is recorded as 16.951. On to `CCCN(CCCNc1c2ccc(Cl)cc2nc2ccc(OC)cc12)Cc1c(Cl)ccc(Cl)c1Cl` [SJ000523021], for which the “percent inhibition (TR-FRET)” value under setting [2] is 40.005.

As for `Cc1ccc(S(=O)(=O)c2cnc3ccccc3c2N2CCN(c3cc(C)ccc3C)CC2)cc1` [SJ000117084], under setting [1], the “percent inhibition (TR-FRET)” value amounted to 2.443.

Turning to `COc1ccc2nc3cc(Cl)ccc3c(NCCCNCc3ccccc3F)c2c1` [SJ000523034], under setting [1], the “percent inhibition (TR-FRET)” value is -353.834. Regarding `COc1ccc2nc3cc(Cl)ccc3c(NCCCNCc3cc(Br)cs3)c2c1` [SJ000520996], under setting [1], the “percent inhibition (TR-FRET)” value is recorded as -287.642. Regarding `CCCN(CCCNc1ccnc2cc(C(F)(F)F)ccc12)Cc1ccc(C)o1` [SJ000361261], the “percent inhibition (TR-FRET)” value under setting [2] came out at 23.9069. For the compound `Cc1ccc(C)c(CN(CCCCNc2ccnc3cc(Cl)ccc23)Cc2ccccc2)c1` [SJ000361209], under setting [1], the “percent inhibition (TR-FRET)” value came out at 32.6515. Consider `CCCN(CCCNc1ccnc2cc(Cl)ccc12)Cc1ccc(Cl)cc1Cl` [SJ000523043], for which the “percent inhibition (TR-FRET)” value under setting [2] came to 12.0952.

With `CCC(CC)c1ccc2c(NCCCNCc3ccco3)ccnc2c1` [SJ000311266], under setting [2], the “percent inhibition (TR-FRET)” value amounted to 24.558. With `COc1ccc2nc3cc(Cl)ccc3c(NCCCNCc3ccc(F)cc3)c2c1` [SJ000523035], the “percent inhibition (TR-FRET)” value under setting [1] is recorded as -398.22. Same read-out and setting: in the case of `Clc1ccc2c(NCCCCN(Cc3ccccc3)Cc3ccc4[nH]ccc4c3)ccnc2c1` [SJ000520434] it was 69.4381; in that of `COc1ccc(N2CCN(c3c(S(=O)(=O)c4ccccc4)cnc4ccc(C)cc34)CC2)cc1` [SJ000083981], -37.966. For `CCCN(CCCNc1ccnc2cc(C(F)(F)F)ccc12)Cc1ccc(N(C)C)cc1` [SJ000523077], under setting [2], the “percent inhibition (TR-FRET)” value was 23.7127. For `CN1CCN(c2c(S(=O)(=O)c3ccccc3)cnc3ccc(Cl)cc23)CC1` [SJ000083950], the “percent inhibition (TR-FRET)” value under setting [1] is given as -5.3743. Same read-out and setting: in the case of `CCOC(=O)c1cnc2c(C)cc(Cl)cc2c1NCCN1CCOCC1` [SJ000129560] it was 4.96. In the case of `CCCN(CCCNc1c2ccc(Cl)cc2nc2ccc(OC)cc12)Cc1c(F)c(F)c(F)c(F)c1F` [SJ000522734], under setting [2], the “percent inhibition (TR-FRET)” value was -2.258. Same read-out and setting: under `CCCN(CCCNc1ccnc2cc(C(F)(F)F)ccc12)Cc1ccc(CC)cc1` [SJ000521009] stands 31.7696.

For `Clc1ccc2c(NC3CCN(CC4CC4)CC3)ccnc2c1` [SJ000357481], the “percent inhibition (TR-FRET)” value under setting [1] was determined as 3.973. On the same count and under the same terms, in the case of `CCC(CC)CN1CCC(Nc2ccnc3cc(Cl)ccc23)CC1` [SJ000523086] it was 9.754.

For `CCCN(CCCNc1ccnc2cc(C(F)(F)F)ccc12)Cc1ccc(OC)c(OC)c1` [SJ000523079], the “percent inhibition (TR-FRET)” value under setting [2] amounted to 14.6566. On the same count and under the same terms, under `CCCN(CCCNc1ccnc2cc(C(F)(F)F)ccc12)Cc1ccc(F)cc1` [SJ000523070] stands 26.4363; under `CCCCCCN(CCC)CCCNc1ccnc2cc(C(F)(F)F)ccc12` [SJ000523083], 34.9477.
